Data reported in patent US11318138B2, “Methods for treating B cell proliferative disorders” (priority 2013, dated 2022).

Assays:
MCL patient (Pt 7) = conditions: Pt 7, Ibrutinib 560 mg daily
MINO cells = assay: MCL cell line culture with Ibrutinib and/or PD 0332991: viability, cell cycle, apoptosis, live cells; format: cell-based
[1] = system: chicken lymphoma DL40 cell line; conditions: model chicken lymphoma DL40 cell line; cited from earlier work
JEKO-1 cells = assay: MCL cell line culture with Ibrutinib and/or PD 0332991: viability, cell cycle, apoptosis, live cells; format: cell-based; conditions: JEKO-1, Ibrutinib 72 h, Trypan blue exclusion and ToPro-3 FACS
[2] = system: PIK3IP1 mRNA in MAVER-1 cells; assay: q-RT-PCR analysis of PIK3IP1 mRNA expression in MCL cells; format: cell-based; conditions: MAVER-1, PD (30 h) alone or Ibrutinib (24 h) alone
MAVER-1 cells = assay: MCL cell line culture with Ibrutinib and/or PD 0332991: viability, cell cycle, apoptosis, live cells; format: cell-based; conditions: MAVER-1, Ibrutinib 72 h, Trypan blue exclusion and ToPro-3 FACS
SP53 cells = conditions: SP53, Ibrutinib 72 h, at the G1-S transition
[3] = system: PIK3IP1 mRNA in JEKO-1 cells; assay: q-RT-PCR analysis of PIK3IP1 mRNA expression in MCL cells; format: cell-based; conditions: JEKO-1, PD (30 h) alone or Ibrutinib (24 h) alone
[4] = system: CCL3, CCL4, TNF and IL10 expression in MCL cells; conditions: MCL cells ex vivo; cited from earlier work
recurrent MCL patients = conditions: cited from earlier work

Row | Structure (SMILES) | duration of response before progression (MCL patient (Pt 7)) | toxicity to cells (MINO cells; Ibrutinib 72 h) | S phase entry (BrdU pulsing/PI analysis) (MINO cells; Ibrutinib 72 h (1 μM)) | effect of C481S BTK mutation on ibrutinib sensitivity [1] | sensitivity of cells to ibrutinib (viability, DNA fragmentation) (JEKO-1 cells) | PIK3IP1 mRNA induction, single agent [2] | sensitivity of cells to ibrutinib (viability, DNA fragmentation) (MAVER-1 cells) | apoptosis (accumulation of sub 2N cells, reduction of S phase cells) (SP53 cells) | PIK3IP1 mRNA induction, single agent [3] | expression of CCL3, CCL4, TNF and IL10 [4] | cell cycle effect in patients (recurrent MCL patients) | clinical response (recurrent MCL patients)
1 | C=CC(=O)N1CCC[C@@H](n2nc(-c3ccc(Oc4ccccc4)cc3)c3c(N)ncnc32)C1 [Ibrutinib, (R)-1-(3-(4-amino-3-(4-phenoxyphenyl)-1H-pyrazolo[3,4-d]pyrimidin-1-yl)piperidin-1-yl)prop-2-en-1-one] | 14 months | not toxic | moderately inhibiting | conferred resistance | completely refractory | modestly induced | completely refractory | potently induced apoptosis | modestly induced | suppress |  | 
2 | CC(=O)c1c(C)c2cnc(Nc3ccc(N4CCNCC4)cn3)nc2n(C2CCCC2)c1=O [PD 0332991] |  |  |  |  |  | modestly induced |  |  | modestly induced |  | prolonged early G1 arrest | durable clinical response
